This passage reports IC50, melting point and Ki results from patent publication US6596738B1, “Heterocyclic compound, composition and method for inhibiting adenosine deaminase” (Fujisawa Pharmaceutical Co., Ltd., priority 1999, dated 2003).

Data set [1] has as its target T1, Human ADA (Homo sapiens, UniProt P00813).
T1 construct: made in house; host or cells: ADA-deficient bacterial strain
T1 sequence (P00813 1-363): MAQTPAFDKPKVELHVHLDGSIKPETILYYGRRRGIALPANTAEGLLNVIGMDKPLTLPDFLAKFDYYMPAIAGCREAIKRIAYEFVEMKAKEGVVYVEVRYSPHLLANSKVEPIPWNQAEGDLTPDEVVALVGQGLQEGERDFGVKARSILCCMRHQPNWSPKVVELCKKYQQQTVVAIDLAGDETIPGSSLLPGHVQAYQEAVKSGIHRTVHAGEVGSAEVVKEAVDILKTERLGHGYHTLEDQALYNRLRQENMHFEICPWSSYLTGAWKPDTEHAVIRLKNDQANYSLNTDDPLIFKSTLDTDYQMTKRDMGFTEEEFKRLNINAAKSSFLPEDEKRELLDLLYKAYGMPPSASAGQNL
The experiment in a line: Adenosine deaminase (ADA) enzyme assay [2], IC50 of Vmax inhibition. It is filed as biochemical. Here is the method:
Human ADA was expressed and purified from ADA-deficient bacterial strain. Reaction mixture of a total volume of 200 μl contained 0.16 μg/ml of ADA, 0.1 mM of adenosine and test compound in 10 mM phosphate buffer saline (pH 7.4). The reaction was started by addition of ADA to a mixture of adenosine and test compound.

The target of data set [2] is T1, Human ADA. The experiment in a line: Adenosine deaminase (ADA) enzyme assay [1], Ki by Dixon plot. The note with it: 25 mU/ml ADA, varying concentrations of adenosine, 10 mM phosphate buffer saline pH 7.4, room temperature, A265 for 5 minutes. It is filed as biochemical. The procedure: The reaction velocity (V) is measured by a change in absorbance at 265 nm (A265) resulting from the deamination of adenosine. Human ADA was expressed and purified from ADA-deficient bacterial strain. Reaction mixtures in a total volume of 200 μl contained 25 mU/ml of ADA and varying concentrations of adenosine and test compounds in 10 mM phosphate buffer saline (pH 7.4). The reaction was started by addition of ADA to a mixture of adenosine and test compound. The reaction was followed at room temperature by recording decrease in A265 for 5 minutes in SPECTRAmax 250 (Molecular Devices, USA) to automatically calculate Vmax. The inhibition constant (Ki) values of test compounds were determined by Dixon plot.

Usually IC50 stands for the concentration that gives 50% inhibition. The low end stands for greater potency in that assay, the high end for weaker potency in that assay. Consider `C[C@H](O)[C@@H](CCc1cccc2ccccc12)n1cncn1` [Compound A, 1-[(2S,3R)-2-Hydroxy-5-(1-naphthyl)-3-pentyl]-1,2,4-triazole], for which, at Human ADA [1], it took 27 nM to reach half-maximal inhibition (IC50).
One may read the melting point as the temperature of the solid-liquid transition. With `NC(=O)c1cn([C@@H](CO)CCn2ccc3ccccc32)cn1` [Example 2, 1-[(R)-1-hydroxy-4-(1-indolyl)-2-butyl]imidazole-4-carboxamide], the melting point lay in the range of 127 to 130 °C.
The term Ki denotes the equilibrium dissociation constant of an inhibitor or competing ligand from its target. High values mean weaker binding, low ones tighter binding. `NC(=O)c1cn([C@@H](CO)CCn2ccc3ccc(NC(=O)CCCc4ccccc4)cc32)cn1` [Example 6-(2), 1-[(R)-1-Hydroxy-4-(6-(4-phenylbutyrylamino)indol-1-yl)-2-butyl]imidazole-4-carboxamide] gave a Ki at Human ADA [2] of 16 nM.
